Legend:
gastrin = target: T1, gastrin (Rattus norvegicus, UniProt P30553); test: gastrin antagonist activity in an immature rat stomach assay; conditions: isolated immature rat stomach, cumulative pentagastrin dose-response curves, acid secretion; for Kb: read-out: Gastrin pKB (converted)
T1 construct: The stomach was excised and flushed with ca. 1 ml of unbuffered physiological saline solution; from tissue; host or cells: isolated whole stomach of immature rats (33-50 g, ca. 21 days old)
T1 sequence (P30553 1-452): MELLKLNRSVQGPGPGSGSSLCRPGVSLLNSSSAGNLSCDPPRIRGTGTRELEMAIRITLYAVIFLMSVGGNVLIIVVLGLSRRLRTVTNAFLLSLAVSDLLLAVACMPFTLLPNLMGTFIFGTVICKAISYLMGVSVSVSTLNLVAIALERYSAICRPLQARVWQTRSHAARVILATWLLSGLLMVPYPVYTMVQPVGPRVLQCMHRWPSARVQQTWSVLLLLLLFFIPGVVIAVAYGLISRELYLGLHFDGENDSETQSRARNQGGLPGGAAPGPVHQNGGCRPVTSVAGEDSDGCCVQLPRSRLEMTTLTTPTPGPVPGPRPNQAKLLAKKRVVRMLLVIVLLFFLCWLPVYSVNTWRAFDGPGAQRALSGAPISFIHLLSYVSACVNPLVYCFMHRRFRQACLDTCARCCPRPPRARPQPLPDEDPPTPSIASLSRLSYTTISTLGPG
Description: The compounds of the examples were also tested for gastrin antagonist activity in an immature rat stomach assay. The procedure was as follows: The oesophagus of immature rats (33-50 g, ca. 21 days old) was ligated at the level of the cardiac sphincter and the duodenal sphincter was cannulated. The stomach was excised and flushed with ca. 1 ml of unbuffered physiological saline solution. The fundus was punctured and cannulated. A further 4-5 ml of unbuffered solution was flushed through the stomach to ensure the preparation was not leaking. […] The stomach was continuously perfused at a rate of 1 ml min^-1 with unbuffered solution gassed with 100% O2 with the perfusate passing over an internally referenced pH-electrode fixed 12 cm above the stomach. After 120 min of stabilisation the drugs were added directly to the serosal solution in the organ bath and after a further 60 min cumulative pentagastrin dose-response curves were started.

CCKB receptor = target: T2, CCKB receptor (Mus musculus, UniProt P56481); test: radioligand binding assay at the CCKB receptor in mouse cortical membranes; conditions: [125I]-CCK8S 200pM, 150 min at 21 ± 3°C; for Ki: read-out: CCKB pKi (converted)
T2 construct: The whole brains from male mice (CD1 22-25g; Charles River) were removed; from tissue; host or cells: cerebral cortex membranes of male CD1 mice
T2 sequence (P56481 1-453): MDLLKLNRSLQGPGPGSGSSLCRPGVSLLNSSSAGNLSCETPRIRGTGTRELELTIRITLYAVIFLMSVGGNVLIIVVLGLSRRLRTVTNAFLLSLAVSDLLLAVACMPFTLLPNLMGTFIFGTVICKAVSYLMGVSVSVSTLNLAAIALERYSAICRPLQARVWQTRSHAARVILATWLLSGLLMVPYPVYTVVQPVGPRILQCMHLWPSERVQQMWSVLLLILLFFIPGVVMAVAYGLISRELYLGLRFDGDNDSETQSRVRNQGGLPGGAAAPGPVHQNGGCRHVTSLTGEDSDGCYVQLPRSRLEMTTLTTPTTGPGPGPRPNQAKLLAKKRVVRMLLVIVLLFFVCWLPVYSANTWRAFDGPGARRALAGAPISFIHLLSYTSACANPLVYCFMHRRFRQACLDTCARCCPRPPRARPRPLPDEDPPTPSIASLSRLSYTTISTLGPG
Description: The compounds of the examples were tested for binding at the CCKB receptor in mouse cortical membranes by means of a radioligand binding assay. The procedure was as follows:
The whole brains from male mice (CD1 22-25g; Charles River) were removed and placed in ice-cold buffer (pH7.2 @ 21 ± 3°C) of the following composition (mM); 10 HEPES, 130 NaCl, 4.7 KCl, 5 MgCl2, 1 EDTA and containing 0.25g.l^-1 bacitracin. The cortex was dissected, weighed and homogenised in 40ml ice-cold buffer using a Teflon-in-glass homogeniser. The homogenate was centrifuged at 39,800g for 20 min at 4°C, the supernatant discarded and the pellet resuspended by homogenisation in fresh buffer. The homogenate was recentrifuged (39,800g; 20 min @ 4°C) and the final pellet was resuspended in HEPES buffer to give a tissue concentration of 2mg.ml^-1(original wet weight).
The assay was terminated by rapid filtration through pre-soaked Whatman GF/B filters using a Brandell Cell harvester. The filters were washed (3 x 3ml) with ice-cold 50mM Tris-HCl (pH7.4 @ 4°C) and bound radioactivity determined by counting (1 min.) in a gamma-counter.

Row | Compound | Kb (gastrin) [nM] | Ki (CCKB receptor) [nM] | Gastrin pKB (gastrin; 60 min) | CCKB pKi (CCKB receptor)
1 | O=C(NCC12CC3CC(CC(C3)C1)C2)C1C2c3ccccc3C(c3ccccc32)C1C(=O)N[C@@H](Cc1ccccc1)C(=O)Nc1ccccc1 (single isomer, unassigned) [Example 23, cis-7-(1S-(phenylaminocarbonyl)-2-phenylethylaminocarbonyl)-8-(1-adamantanemethylaminocarbonyl)-2,3,5,6-dibenzobicyclo[2.2.2]octane] | 251 | – | – | –
2 | O=C(O)c1cc(NC(=O)[C@H](Cc2ccc(O)cc2)NC(=O)C2C3c4ccccc4C(c4ccccc43)C2C(=O)NCC23CC4CC(CC(C4)C2)C3)cc(C(=O)O)c1 (single isomer, unassigned) [Example 24, cis-7-(1S-(3,5-dicarboxyphenylaminocarbonyl) -2-(4-hydroxyphenyl) -ethylaminocarbonyl)-8-(1-adamantanemethylaminocarbonyl) -2,3,5,6-dibenzobicyclo[2.2.2]octane] | 1.26 | 1.58 | – | –
3 | O=C(O)c1cc(NC(=O)[C@@H](Cc2ccc(O)cc2)NC(=O)C2C3c4ccccc4C(c4ccccc43)C2C(=O)NCC23CC4CC(CC(C4)C2)C3)cc(C(=O)O)c1 (single isomer, unassigned) [Example 26, cis-7-(1R-(3,5-dicarboxyphenylaminocarbonyl)-2-(4-hydroxyphenyl)-ethylaminocarbonyl)-8-(1-adamantanemethylaminocarbonyl) -2,3,5,6-dibenzobicyclo [2.2.2]octane] | 158 | – | – | –
4 | O=C(O)c1cc(NC(=O)[C@@H](Cc2ccc(O)cc2)NC(=O)C2C3c4ccccc4C(c4ccccc43)C2C(=O)NCC23CC4CC(CC(C4)C2)C3)cc(C(=O)O)c1 (single isomer, unassigned) [Example 27, cis-7-(1R-(3,5-dicarboxyphenylaminocarbonyl)-2-(4-hydroxyphenyl)ethylaminocarbonyl)-8-(1-adamantanemethylaminocarbonyl)-2,3,5,6-dibenzobicyclo [2.2.2]octane] | 7.94 | 15.8 | – | –
5 | O=C(O)c1ccc(NC(=O)[C@H](Cc2ccccc2)NC(=O)C2C3c4ccccc4C(c4ccccc43)C2C(=O)NCC23CC4CC(CC(C4)C2)C3)cc1 (single isomer, unassigned) [Example 47] | – | 126 | – | –
6 | COC(=O)c1cc(NC(=O)[C@H](Cc2ccccc2)NC(=O)C2C3c4ccccc4C(c4ccccc43)C2C(=O)NCC23CC4CC(CC(C4)C2)C3)cc(C(=O)OC)c1 (single isomer, unassigned) [Example 48] | – | 10000 | – | –
7 | cis-7-(1S-(3-carboxyphenylaminocarbonyl)-2- (2-thiophenyl)ethylaminocarbonyl)-8-(1-naphthalenemethylaminocarbonyl) -2,3,5,6-dibenzobicyclo[2.2.2]octane [Example 57] | – | – | – | 7.2
8 | cis-7-(1S-(3-carboxyphenylaminocarbonyl)-2-phenylethylaminocarbonyl)-8-(1-naphthalenemethylaminocarbonyl)-2,3,5,6-dibenzobicyclo[2.2.2]octane [Example 59] | – | – | – | 7.2

More lines, now with the values ahead:

Row | Kb (gastrin) [nM] | Ki (CCKB receptor) [nM] | Gastrin pKB (gastrin; 60 min) | CCKB pKi (CCKB receptor) | Compound
9 | 63.1 | – | – | – | O=C(O)c1cc(NC(=O)[C@H](Cc2ccc(O)cc2)NC(=O)C2C3c4ccccc4C(c4ccccc43)C2C(=O)NCC23CC4CC(CC(C4)C2)C3)cc(C(=O)O)c1 (single isomer, unassigned) [Example 25, cis-7-(1S-(3,5-dicarboxyphenylaminocarbonyl)-2-(4-hydroxyphenyl)ethylaminocarbonyl)-8-(1-adaxantanemethylaminocarbonyl)-2,3,5,6-dibenzobicyclo[2.2.2]octane]
10 | 3.98 | 3.98 | – | – | O=C(O)c1cc(NC(=O)[C@H](Cc2ccccc2)NC(=O)C2C3c4ccccc4C(c4ccccc43)C2C(=O)NCC2CCCCCC2)cc(C(=O)O)c1 (single isomer, unassigned) [Example 28, cis-7-(1S-(3,5-dicarboxyphenylaminocarbonyl) -2-phenylethylaminocarbonyl)-8-(1-cycloheptane-methylaminocarbonyl) -2,3,5,6-dibenzobicyclo[2.2.2]octane]
11 | 100 | 39.8 | – | – | O=C(O)c1cc(NC(=O)[C@H](Cc2ccccc2)NC(=O)C2C3c4ccccc4C(c4ccccc43)C2C(=O)NCC2CCCCCC2)cc(C(=O)O)c1 (single isomer, unassigned) [Example 29, cis-7-(1S-(3,5-dicarboxyphenylaminocarbonyl) -2-phenylethylaminocarbonyl) -8-(cycloheptanemethyl-aminocarbonyl)-2,3,5,6-dibenzobicyclo[2.2.2]octane]
12 | 2000 | 158 | – | – | O=C(O)c1ccc(NC(=O)[C@H](Cc2ccccc2)NC(=O)C2C3c4ccccc4C(c4ccccc43)C2C(=O)NCC23CC4CC(CC(C4)C2)C3)cc1 (single isomer, unassigned) [Example 46, cis-7-(1S-(4-carboxy-phenylaminocarbonyl) -2-phenylethylaminocarbonyl)-8-(1-adamantane-methylaminocarbonyl) -2,3,5,6-dibenzobicyclo[2.2.2]octane]
13 | – | 501 | – | – | O=C(O)c1cccc(NC(=O)[C@H](Cc2cccs2)NC(=O)C2C3c4ccccc4C(c4ccccc43)C2C(=O)NCc2cccc3ccccc23)c1 (single isomer, unassigned) [Example 58, cis-7-(1S-(3-carboxyphenylaminocarbonyl)-2-(2-thiophenyl)ethylaminocarbonyl)-8-(1-naphthalenemethylaminocarbonyl)-2,3,5,6-dibenzobicyclo[2.2.2]octane]
14 | – | 398 | – | – | O=C(O)c1cccc(NC(=O)[C@H](Cc2ccccc2)NC(=O)C2C3c4ccccc4C(c4ccccc43)C2C(=O)NCc2cccc3ccccc23)c1 (single isomer, unassigned) [Example 60, cis-7-(1S-(3-carboxyphenylaminocarbonyl)-2-phenylethylaminocarbonyl)-8-(1-naphthalenemethylaminocarbonyl)-2,3,5,6-dibenzobicyclo [2.2.2]octane]
15 | – | – | 6.9 | 6.5 | O=C(NCC12CC3CC(CC(C3)C1)C2)C1C2c3ccccc3C(c3ccccc32)C1C(=O)N[C@@H](Cc1ccccc1)C(=O)Nc1cc(-c2nnn[nH]2)cc(-c2nnn[nH]2)c1 (stereo partly drawn) [Example 44, cis-7-(1S-(3,5-ditetrazolylphenylaminocarbonyl) -2-phenylethylaminocarbonyl) -8-(1-adamantanemethylaminocarbonyl)-2,3,5,6-dibenzobicyclo[2.2.2] octane]

From patent EP0719251B1, “BICYCLO (2.2.2) OCTANE DERIVATIVES CHOLECYSTOKININ AND/OR GASTRIN ANTAGONISTS” (JAMES BLACK FOUNDATION LIMITED, priority 1993, dated 1995)
